Experimental data reported in patent US5646130A, “Low molecular weight sulfated polysaccharides and uses thereof” (priority 1995, dated 1997).

Experiments:
white blood cells = assay: Cyclophosphamide immunosuppression in albino mice; format: in vivo; conditions: cyclophosphamide alone
Excerpt: These compounds provided herein can also be used for enhancing cellular and humoral immunological activities. In particular, these compositions and compounds prevent or reduce the immunosuppressive side-effects associated with the administration of alkylating agents, such as cyclophosphamide, for treatment of certain cancers.

hyperlipoproteinemia = assay: Anti-hyperlipoproteinic activity in rats; format: in vivo, rat; conditions: 300 mg/Kg PO
Excerpt: The pharmacological activity increased with oral dose levels.

thrombus formation = assay: Comparison of (M9 G)2 and heparin, thrombosis assay, Experiment 2; format: in vivo, rabbit; conditions: 83 u/kg
Description: Rabbits were anesthetized and surgically instrumented using an established method in which the right carotid artery was connected via a polyethylene tube to the left external […]. A 15 cm [#4] surgical wire was left in the polyethylene tubing for thrombus formation. The animals were then treated with saline or drug intravenously for 10 minutes and the arterial-venous shunt was connected to allow blood flow for 15 minutes. The wire was then retrieved and weighed to determine the thrombus weight.

[1] = system: fibrin degradation protein (FDP); assay: Fibrinolysis activity in rabbits (FDP, fibrinogen); format: in vivo, rabbit; conditions: iv 333 U/Kg
[2] = system: fibrinolysis (euglobulin lysis); assay: Euglobulin lysis time in rabbits; format: in vivo, rabbit; conditions: iv 333 U/Kg
Description: ELT:englobulin (euglobulin) lysis time; a measurement of in vivo plasmin

[3] = system: rabbit blood clot formation; assay: Ex vivo anti-thrombotic activity in treated rabbits (clot wet weight); conditions: 83 u/kg
Description: Blood [1 ml] was removed from the carotid artery of treated animals and quickly injected into clot formation tubes. […] The wet weight of the clot was determined. The clot was dried at 60° C. overnight, and dry weight was determined.

[4] = system: preformed rabbit blood clot; assay: Ex vivo thrombolysis of preformed rabbit blood clot; conditions: 335 U/ml
Description: A rabbit arterial blood clot [1 ml] was preformed at 37° C., for 60 min. The clot was incubated in vitro with the drug (0.1 ml, 6 groups) in the clot forming tube at 37° C. for 60 min. At the end of the incubation, the clot was removed and its wet weight determined. It was then dried overnight and its dry weight was determined.

Question: For `O=P1(N(CCCl)CCCl)NCCCO1` (centres unmarked) [cyclophosphamide], which “White blood cell counts” value (white blood cells) is on record?
Answer: close to zero

Question: Which results are given for `CCOC(=O)C(C)(C)Oc1ccc(Cl)cc1` [clofibrate]?
Answer: MDA (hyperlipoproteinemia): 1.2 mmol/L; PTC (percent inhibition of total cholesterol) (hyperlipoproteinemia): 53%; TC (hyperlipoproteinemia): 4.0 mmol/L; TG (hyperlipoproteinemia): 0.4 mmol/L

Question: What does the source list for heparin?
Answer: Wet weight inhibition, 15 min (thrombus formation): 97; Wet weight inhibition, 60 min (thrombus formation): 20; Wet weight inhibition, 120 min (thrombus formation): 0; FDP, 15 min post [1]: 18 ± 9 mg/L; FDP, 60 min post [1]: 6 ± 6. mg/L; ELT time, 15 min post [2]: 124 min; ELT time, 60 min post [2]: 197 min; Clot wet weight, 15 min after [3]: 2.0 ± 4.5 mg; Clot wet weight, 60 min after [3]: 51 ± 23 mg; % Dissolution [4]: 4.7 ± 8.5%; Clot dry weight [4]: 14.1 ± 3.2; Clot wet weight [4]: 56 ± 9
